# Several values for one entry are separate records, joined by “and”; a condition that tells them apart may be missing. Identical values can stand only once.
# How the values were obtained:
# [1] = tested on: IgE production by U266 cells; experiment: IgE production by human myeloma U266 cells, IgE ELISA of supernatants; assay type: cell-based
# Procedure: The human myeloma cell line (U266), purchased from ATCC (American Type Culture Collection; Rockville, MD), has been used to test different herb extracts and purified compounds for their IgE inhibitory effects ([31]). 2×10^5 cells/mL of cells were cultured at 37°C under 5% CO2 in complete media containing RPMI 1640 medium supplemented, 10% FBS, 1 mM sodium pyruvate, 1×10^-5 M β-ME and 0.5% penicillin-streptomycin. XPP at 0, 2.5, 5, 10, 20 and 40 μg/mL were added at day 0. After 6 days, supernatants were harvested and IgE levels were measured by using an ELISA Kit (Mabtech Inc, OH). Briefly, samples and standards were added into prewashed 96-well plate coated with capture monoclonal antibodies (mAbs). After 2-hour incubation at room temperature, plate was washed 5 times and incubated with detection mAb for 1 hour. The plate was then washed for 5 times and incubated with streptavidin-HRP for 1hour at room temperature. The plate was then washed and developed with TMB substrate for 15 min. The optical density was measured using ELISA reader at 450nm. IgE concentrations were calculated based on the standard curve.
# S Figure 2. The IgE inhibitory effect of five fractions from R.cordifolia. U266 cells (2 × 10^5 cells/mL) were co-incubated with each fraction at the concentration of 10 μg/mL for 6 days. The supernatants were harvested and IgE levels were measured by ELISA. The inhibition percentage was calculated using the equation “% inhibition = (1- IgE level each fr / IgE level non-treated ) x 100%”.
# [2] = tested on: PN-allergic C3H/HeJ mice; experiment: Peanut-allergic mouse models (Model #1 systemic i.p. sensitization, early treatment; Model #2 oral sensitization, late treatment) with oral PN challenge; assay type: in vivo; settings: for Time after stopping treatment at which protection from anaphylaxis persisted: model #1
# [3] = tested on: naïve C3H/HeJ mice; experiment: Acute toxicity assay; assay type: in vivo
# Procedure: For acute toxicity analysis, naïve C3H/HeJ mice were fed with 4 mg of XPP per mouse, which is10 times of the daily dose. […] In the sub-chronic toxicity assay, naïve C3H/HeJ mice were fed with 5 times their daily therapeutic dose (2 mg/day) for 14 days. Control group mice (sham) were fed with water. Blood samples were collected at the end of each experiment. Blood urea nitrogen (BUN) and alanine aminotransferase (ALT) measurements for the evaluation of kidney and liver functions respectively and complete blood count (CBC) testing were performed by ALX laboratories, NY.
# [4] = tested on: splenocytes (SPCs) and mesenteric lymph node (MLN) cells; experiment: Cytokines in CPE-stimulated splenocyte and MLN cell cultures from treated mice (Model #2), ELISA; assay type: in vivo, C3H/HeJ mice; settings: model #2, CPE stimulation, vs sham
# Procedure: Mice were sacrificed at the end of each experiment. The splenocytes (SPCs) and mesenteric lymph node (MLN) cells of each mouse was collected as previously described ([37]). Cells (4 x10^6/well/mL) were cultured in 24 well plates in the presence or absence of CPE (200 µg/mL). After 72 hrs of incubation at 37°C under 5% CO2, supernatants were collected. Cytokine levels were measured using ELISA kits in triplicate according to the manufacturer’s instructions (BD Biosciences, San Jose, CA and R&D systems, Minneapolis, MN).
# [5] = tested on: U266 cells; experiment: RNA sequencing of XPP-treated U266 cells; assay type: cell-based, human; settings: XPP 10 μg/mL, 3 days
# Procedure: U266 cells were treated with XPP at 10 μg/mL. After 3 days of treatment, cells were collected and total RNA was isolated using Qiagen RNeasy MiniKits following the manufacturer’s instructions. The purity of total RNA was analyzed and the RNA-Seq was performed with an Illumina HiSeq2500 instrument at the Genomics Core facility at Icahn School of Medicine at Mount Sinai. Counts were converted to Log2 counts per million and normalized. A log2 fold change was calculated and the gene list with values ≥ 2 or ≤ -2 were uploaded to DAVID bioinformatic system for functional analysis.
# [6] = model #1, 7 weeks after stopping therapy
# [7] = orally sensitized mouse model #2
# [8] = 10x dose (4 mg/mouse) once, observed 14 days
compound,measurement,setting,value
"O=C1c2ccccc2C(=O)c2c(O)cc(O)cc21 [XPP, xanthopurpurin]",IC50,"[1]; Homo sapiens, U-266, 144 h, 6 days culture, IgE ELISA",9 µg/mL
same,XPP concentration at which complete inhibition of IgE production was observed,"[1]; U266 cells, 6 days",40 µg/mL
same,XPP concentration at which inhibition of IgE was first observed,"[1]; U266 cells, 6 days",2.5 µg/mL
same,XPP concentration reaching statistically significant inhibition of IgE,"[1]; U266 cells, 6 days, p < 0.01",10 µg/mL
same,IgE production by U266 cells,"[1]; XPP 2.5-40 µg/mL, 6 days",inhibited the IgE production by U266 cells in a dose-dependent manner
same,Body temperatures after PN challenge,"[2]; both models, 30 minutes after challenge, p < 0.001 vs. Sham",normal body temperatures
same,Reduction of PN-specific IgE levels at challenge vs. sham,"[2]; both models, oral XPP 400 µg/day",> 80% and 75%
same,Plasma histamine levels after PN challenge,"[2]; both models, p < 0.001",essentially normal plasma histamine levels
same,Symptom scores following PN challenge,"[2]; both models, score 0-5, p <0.001 vs. Sham",0
same,Time after stopping treatment at which protection from anaphylaxis persisted,[2],5 weeks
same,"Body temperatures, sustained effect",[2]; [6],increased
same,"PN-specific IgE levels, sustained effect",[2]; [6],significantly reduced
same,"Symptom scores, sustained effect",[2]; [6],significantly reduced
same,Time after stopping treatment at which protection from anaphylaxis persisted,[2]; listed as xanthopurpurin,7 weeks
same,Fecal PN-specific IgA,[2]; [7],did not reduce
same,Serum PN-specific IgG1,[2]; [7],did not reduce
same,Serum PN-specific IgG2a,[2]; [7],did not reduce
same,"Deaths, abnormal behavior or diarrhea","[3]; 10 times (4 mg/day) once, observed daily for 14 days",No deaths and abnormal behavior or diarrhea were observed
same,Morbidity,[3]; [8],0.00%
same,Mortality,[3]; [8],0.00%
same,IL-4 level in MLN cultures,[4]; 72 hrs,significantly inhibited IL-4 level
same,IL-4 level in splenocyte cultures,[4]; 72 hrs,significantly inhibited IL-4 level
same,IFN-γ production in MLN cultures,[4],no significant differences
same,IFN-γ production in SPC cultures,[4],no significant differences
same,IL-10 production in MLN cultures,[4],no significant differences
same,IL-10 production in SPC cultures,[4],no significant differences
same,Number of genes downregulated (RNA-Seq),[5],5094 genes
same,Number of genes upregulated (RNA-Seq),[5],4009 genes

# Reference: article PMC10876879, “Sustained silencing peanut allergy by xanthopurpurin is associated with suppression of peripheral and bone marrow IgE-producing B cell” (Frontiers in Immunology, 2024)
